Results on 27 compounds are retold here after ChEMBL document CHEMBL1201862, “PubChem BioAssay data set” (2004).

In assay [1] the target is T1, Replicative DNA helicase DnaB (Mycobacterium tuberculosis, UniProt P9WMR3).
T1 sequence (P9WMR3 whole entry): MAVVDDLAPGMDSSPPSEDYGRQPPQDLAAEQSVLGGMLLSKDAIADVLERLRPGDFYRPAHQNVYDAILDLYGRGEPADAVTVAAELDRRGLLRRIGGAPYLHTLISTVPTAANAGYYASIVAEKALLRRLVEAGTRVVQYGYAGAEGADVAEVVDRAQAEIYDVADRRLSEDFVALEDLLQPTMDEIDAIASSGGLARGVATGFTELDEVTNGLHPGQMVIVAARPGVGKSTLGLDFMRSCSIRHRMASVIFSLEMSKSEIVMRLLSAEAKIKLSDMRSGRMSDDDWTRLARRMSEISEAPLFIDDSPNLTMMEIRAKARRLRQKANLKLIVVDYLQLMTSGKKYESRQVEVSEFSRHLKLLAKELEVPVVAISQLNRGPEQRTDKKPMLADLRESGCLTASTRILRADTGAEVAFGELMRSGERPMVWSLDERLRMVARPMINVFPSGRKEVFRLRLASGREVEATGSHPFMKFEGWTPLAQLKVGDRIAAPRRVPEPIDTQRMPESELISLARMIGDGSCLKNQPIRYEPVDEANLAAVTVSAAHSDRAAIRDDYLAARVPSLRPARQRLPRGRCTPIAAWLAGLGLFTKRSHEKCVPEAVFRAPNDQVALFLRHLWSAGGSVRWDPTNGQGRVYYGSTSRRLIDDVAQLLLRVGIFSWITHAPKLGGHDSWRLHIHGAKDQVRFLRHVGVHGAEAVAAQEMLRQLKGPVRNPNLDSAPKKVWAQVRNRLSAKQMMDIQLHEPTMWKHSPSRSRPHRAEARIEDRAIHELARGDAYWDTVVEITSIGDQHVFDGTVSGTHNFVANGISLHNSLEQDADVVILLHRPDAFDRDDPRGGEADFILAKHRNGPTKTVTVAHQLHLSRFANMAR
The assay is described as follows: DnaB intein splicing inhibitors, dose response, biochemical, cell-free fluorescence (AID 449749). Type of assay: functional.

The target of the next assay is Cytochrome P450 3A4 (Homo sapiens, UniProt P08684).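 Note: CYP3A4 tested as one member of a cytochrome P450 panel screen.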
The target in the next assay is Cytochrome P450 2C9 (Homo sapiens, UniProt P11712).
The next assay deals with T2, Protein RecA (Mycobacterium tuberculosis, UniProt P9WHJ3).
T2 sequence (P9WHJ3 whole entry): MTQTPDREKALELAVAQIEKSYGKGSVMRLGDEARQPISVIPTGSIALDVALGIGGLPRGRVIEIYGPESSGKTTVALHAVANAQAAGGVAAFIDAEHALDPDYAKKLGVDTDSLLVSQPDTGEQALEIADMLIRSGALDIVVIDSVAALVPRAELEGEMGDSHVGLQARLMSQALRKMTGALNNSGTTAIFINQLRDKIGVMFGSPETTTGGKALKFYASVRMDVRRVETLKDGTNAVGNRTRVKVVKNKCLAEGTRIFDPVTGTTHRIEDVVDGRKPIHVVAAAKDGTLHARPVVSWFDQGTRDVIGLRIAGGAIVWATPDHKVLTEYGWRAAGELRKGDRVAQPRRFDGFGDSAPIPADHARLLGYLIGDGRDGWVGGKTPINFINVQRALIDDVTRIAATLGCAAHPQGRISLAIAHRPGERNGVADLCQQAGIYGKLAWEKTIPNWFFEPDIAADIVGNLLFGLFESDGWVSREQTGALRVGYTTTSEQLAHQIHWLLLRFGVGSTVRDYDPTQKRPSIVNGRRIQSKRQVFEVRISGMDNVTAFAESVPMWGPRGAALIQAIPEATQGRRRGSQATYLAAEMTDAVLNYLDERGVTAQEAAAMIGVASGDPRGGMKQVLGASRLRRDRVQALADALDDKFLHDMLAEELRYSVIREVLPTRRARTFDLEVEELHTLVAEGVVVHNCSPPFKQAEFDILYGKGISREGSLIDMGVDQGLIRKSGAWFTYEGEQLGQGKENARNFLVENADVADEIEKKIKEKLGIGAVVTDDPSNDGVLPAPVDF
Briefly: Fluorescence Cell-Free Homogeneous Dose Retest to Identify Inhibitors of RecA-Intein Splicing Activity. [Related pubchem assays (depositor defined):AID2097, AID2223, AID489010, AID492950]. It is filed as functional.

Assay [2] is described as follows: cells. It is filed as functional, cell-based.
Assay [3] can be described thus: cells. It is filed as functional, cell-based. The source holds these as a separate data set.
For assay [4], the target named is FAD-linked sulfhydryl oxidase ALR (Homo sapiens, UniProt P55789). Briefly: ALR-catalysed DTT oxidation blockers – biochemical, H2O2 detection, luminescence, cherry-pick, dose response (AID 493248).
In assay [5] the target is T3, Zinc finger protein mex-5 (Caenorhabditis elegans, UniProt Q9XUB2).
T3 sequence (Q9XUB2 whole entry): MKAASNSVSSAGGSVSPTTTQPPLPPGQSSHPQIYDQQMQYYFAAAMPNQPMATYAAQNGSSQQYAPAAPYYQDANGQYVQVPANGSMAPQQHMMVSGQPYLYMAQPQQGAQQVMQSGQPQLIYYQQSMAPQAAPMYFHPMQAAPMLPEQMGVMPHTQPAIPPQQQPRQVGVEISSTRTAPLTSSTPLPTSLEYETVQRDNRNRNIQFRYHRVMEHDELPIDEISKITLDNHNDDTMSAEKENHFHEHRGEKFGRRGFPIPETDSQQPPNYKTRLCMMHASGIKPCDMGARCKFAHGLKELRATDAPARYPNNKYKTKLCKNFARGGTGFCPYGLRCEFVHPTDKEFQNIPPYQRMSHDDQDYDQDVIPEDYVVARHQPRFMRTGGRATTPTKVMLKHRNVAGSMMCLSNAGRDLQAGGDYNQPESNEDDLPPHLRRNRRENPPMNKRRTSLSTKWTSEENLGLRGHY
Briefly: potency of MEX-5 RNA-binding blockers – biochemical, C. elegans, fluorescence polarization, dose response (AID 1960).

The target in assay [6] is T4, RNA-binding protein pos-1 (Caenorhabditis elegans, UniProt G5EF15).
T4 sequence (G5EF15 whole entry): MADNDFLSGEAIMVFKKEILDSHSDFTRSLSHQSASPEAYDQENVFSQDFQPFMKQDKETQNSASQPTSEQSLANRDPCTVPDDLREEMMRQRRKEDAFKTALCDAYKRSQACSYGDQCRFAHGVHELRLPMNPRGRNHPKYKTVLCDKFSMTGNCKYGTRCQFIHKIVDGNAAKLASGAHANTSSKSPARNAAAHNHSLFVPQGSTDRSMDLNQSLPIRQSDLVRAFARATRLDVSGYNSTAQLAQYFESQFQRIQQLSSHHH
The assay is described as follows: disruptors of C. elegans POS-1 RNA interaction – biochemical, fluorescence polarization, dose response (AID 1964).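 Note: purified POS-1 fused to maltose binding protein made in E. coli; potency of compounds blocking POS-1 binding to fluorescent RNA.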

Assay [7] concerns the target T5, Carboxy-terminal domain RNA polymerase II polypeptide A small phosphatase 1 (Homo sapiens, UniProt Q9GZU7).
T5 sequence (Q9GZU7 whole entry): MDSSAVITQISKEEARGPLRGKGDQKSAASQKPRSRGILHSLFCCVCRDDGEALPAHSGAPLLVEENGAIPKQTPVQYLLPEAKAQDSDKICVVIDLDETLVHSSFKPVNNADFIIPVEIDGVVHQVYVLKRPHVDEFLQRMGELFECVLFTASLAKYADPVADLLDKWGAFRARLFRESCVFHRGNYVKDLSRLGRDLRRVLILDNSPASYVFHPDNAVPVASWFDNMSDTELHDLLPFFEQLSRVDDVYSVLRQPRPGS
Briefly: CTDSP1 inhibitors, concentration-response, biochemical, absorbance readout, ultra-high-throughput screen actives (AID 540297). It is filed as functional.

Assay [8] can be described thus: NIH-3T3 fibroblast cytotoxicity, dose response, cytotoxicity control, cell-based, fluorescence, Alamar Blue, secondary assay (AID 2327).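 Note: NIH-3T3 mouse fibroblasts cultured with fluconazole at 8 µg/mL.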 It is filed as functional.
Assay [9] can be described thus: fluconazole-exposed Candida albicans growth modulators – fluorescence, retest, confirmation (AID 2467). Type of assay: functional, cell-based.
A short description of assay [10]: Luminescence Cell-Based Dose Response HTS to Identify Activators of Luciferase Translation or Activity in H4 […] Cells. [Related pubchem assays: 1829 (Project Summary), 1814 (Primary HTS)]. Type of assay: functional.
Assay [11] in a line: viability of uninfected HEp-2 cells – cell-based, HTS, cytotoxicity control for RSV inhibitor project, dose response (AID 2410). It is filed as functional. Particulars: human respiratory syncytial virus.
Another assay has as its system H4. Briefly: Luminescence Cell-Based Dose Response HTS to Identify Activators of 5'UTR Stem-Loop Driven Prion Protein mRNA Translation in H4 Neuroglioblastoma Cells. [Related pubchem assays: 1829 (Project Summary), 1814 (Primary HTS)]. It is filed as functional. To be noted: Homo sapiens.
The nature of assay [12]: blockers of HIV-1 envelope-mediated cell-cell fusion – cherry-pick, dose response (AID 652057). It is filed as functional, cell-based.
Assay [13] can be described thus: HIV-1 AD8 envelope cell-cell fusion blockers – cherry-pick, dose response (AID 652062).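 Note: luciferase signal from cell-cell fusion driven by HIV-1 clade B AD8 Env; potency is for inhibitors of fusion seen as a drop in luminescence.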 Type of assay: functional, cell-based.

Molecules are shown by their SMILES. The source made the active and inactive calls. Cut-off read from the data, not from the text of the source, for most assays here: actives have a measured EC50 and inactives only a lower limit.

Sequence of FAD-linked sulfhydryl oxidase ALR (P55789 whole entry): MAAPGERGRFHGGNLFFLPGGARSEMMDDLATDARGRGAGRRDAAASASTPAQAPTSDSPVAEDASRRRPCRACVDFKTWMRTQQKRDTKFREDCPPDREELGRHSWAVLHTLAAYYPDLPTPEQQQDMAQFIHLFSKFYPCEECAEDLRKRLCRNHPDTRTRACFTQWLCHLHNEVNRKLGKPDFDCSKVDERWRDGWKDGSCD
Sequence of Cytochrome P450 2C9 (P11712 whole entry): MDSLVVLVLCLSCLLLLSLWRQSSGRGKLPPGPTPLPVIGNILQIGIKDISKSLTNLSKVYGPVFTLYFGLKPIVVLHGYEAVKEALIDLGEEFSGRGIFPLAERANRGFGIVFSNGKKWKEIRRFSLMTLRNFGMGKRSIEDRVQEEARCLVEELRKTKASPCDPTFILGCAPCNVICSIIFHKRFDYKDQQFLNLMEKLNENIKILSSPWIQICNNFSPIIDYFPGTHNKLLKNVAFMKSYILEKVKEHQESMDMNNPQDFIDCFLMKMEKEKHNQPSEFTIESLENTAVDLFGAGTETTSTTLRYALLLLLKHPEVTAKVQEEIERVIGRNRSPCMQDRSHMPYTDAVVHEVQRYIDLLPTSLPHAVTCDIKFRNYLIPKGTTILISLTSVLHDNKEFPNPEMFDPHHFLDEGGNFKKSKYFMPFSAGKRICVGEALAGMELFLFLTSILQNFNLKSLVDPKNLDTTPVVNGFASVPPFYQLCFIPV
Sequence of Cytochrome P450 3A4 (P08684 whole entry): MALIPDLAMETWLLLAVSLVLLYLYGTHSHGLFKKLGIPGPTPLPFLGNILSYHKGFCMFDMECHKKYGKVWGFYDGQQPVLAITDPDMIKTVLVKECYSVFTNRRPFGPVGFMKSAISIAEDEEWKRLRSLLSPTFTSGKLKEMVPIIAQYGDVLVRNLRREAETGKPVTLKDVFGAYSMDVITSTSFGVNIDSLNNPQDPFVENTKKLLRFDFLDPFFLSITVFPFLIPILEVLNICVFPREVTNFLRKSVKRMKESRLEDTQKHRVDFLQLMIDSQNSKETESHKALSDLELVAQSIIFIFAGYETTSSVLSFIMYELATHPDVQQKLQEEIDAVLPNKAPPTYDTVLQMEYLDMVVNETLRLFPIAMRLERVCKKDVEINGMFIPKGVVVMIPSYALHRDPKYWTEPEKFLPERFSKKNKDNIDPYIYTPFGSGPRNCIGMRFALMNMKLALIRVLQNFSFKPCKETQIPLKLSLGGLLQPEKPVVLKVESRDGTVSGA

Regarding `O=C1CCN(S(=O)(=O)c2ccccc2)N1`, the AC50 in [1] is 31.2 µM (active); on Cytochrome P450 3A4 it was 28.2 µM (inconclusive); on Cytochrome P450 2C9 it was 12.6 µM (inconclusive). Also, the EC50 at Protein RecA was 3.73 µM (active). As to `C#CCOc1ccc(Br)cc1C(c1c(C)n[nH]c1O)c1c(C)n[nH]c1O`, the AC50 in [1] was 0.973 µM (active). On Protein RecA, the EC50 was 1.03 µM (active).

For the compound `COC(=O)c1[nH]c2ccccc2c1/C=C1\C(=O)NC(=O)N(c2cc(OC)ccc2OC)C1=O`, the EC50 in “cells [2]” is > 350 µM (not active); in “cells [3]”, 73.1 µM (active). For `Nc1ncc(-c2ccccc2)c(-c2ccc(O)cc2O)n1`, the AC50 in assay [4] is 3.66 µM (active). Take `Cc1ccc(C2C(C#N)=C(N)Oc3[nH]nc(C)c32)cc1` (stereo unspecified): the AC50 in [1] is 7.89 µM (active). In addition, the EC50 at Protein RecA was 3.56 µM (active).

With `Cc1ccccc1NC(=O)CN1C(=O)S/C(=C\c2cccn2-c2cccc(C(=O)O)c2)C1=O`, the EC50 in [5] and in [6] was > 300 µM (not active) throughout. In addition, the IC50 in assay [7] was 4.23 µM (active). `CN(C)Cc1ccccc1Sc1ccc(O)cc1O`: in [4], the AC50 was 1.78 µM (active). Take `COc1cccc(C(=O)c2cn(CC(=O)NCc3ccco3)c3nc(C)ccc3c2=O)c1`: the 50% inhibitory concentration (IC50) in assay [7] was 11.2 µM (active). For the compound `CC(C)c1ccc(S(=O)(=O)Nc2ccc(O)c(Sc3nc[nH]n3)c2)cc1`, the AC50 in [4] was 1.49 µM (active). `NN1C(=O)/C(=C2/Sc3ccccc3N2CCCS(=O)(=O)O)SC1=S`: the IC50 in assay [7] is 8.53 µM (active). For the compound `COc1cccc(/C=N/NC(=O)c2nc(-c3ccccc3)cc(-c3ccccc3)n2)c1O`, the EC50 in assay [8] is > 150 µM (inactive); in the assay “cells [2]”, 12.8 µM (active); in assay [9], 1.54 µM (active); in “cells [3]” it was 86.6 µM (active).

Consider `O=C1CCC(C(=O)N2CCCC(Nc3ccc(F)cc3)C2)=NN1` (stereo unspecified), for which the AC50 in [4] was 24.8 µM (active).

With `CCOC(=O)c1c(C)oc2c1c1c(c3ccccc32)OCN(CCCC(=O)O)C1`, the EC50 was 22.8 µM (active) in assay [10], 11 µM (active) in the assay on H4 and 4.11 µM (active) at Protein RecA. Also, the AC50 in assay [1] was > 120 µM (inactive). In addition, the CC50 in [11] is 43.6 µM (active). In the case of `CCCc1n[nH]c2c1C(c1cccc(OC(=O)c3ccco3)c1)C(C#N)=C(N)O2` (stereo unspecified), in [1], the AC50 is 5.48 µM (active). Also, the EC50 at Protein RecA is 4.91 µM (active). Consider `COc1cccc(N2CCN(CC(=O)NC(C)c3ccccc3)CC2)c1` (stereo unspecified), for which the AC50 in [4] was 2.02 µM (active). In the case of `COC(=O)C1C(=O)N2CCCSC2=C(C#N)C1c1cccs1` (stereo unspecified), the EC50 in the assay “cells [2]” and in “cells [3]” was > 350 µM (not active) in each case.

In the case of `O=C(COC(=O)c1ccc2c(c1Cl)C(=O)c1ccccc1C2=O)NC1CC1`, the AC50 in [1] was 26.2 µM (active). Further, the EC50 on Protein RecA was 12.9 µM (active).

Take `COc1ccc(S(=O)(=O)N(C)C[C@@H]2Oc3ccc(NC(=O)Nc4ccc5c(c4)OCO5)cc3C(=O)N([C@H](C)CO)C[C@@H]2C)cc1`: the figures for the half-maximal activity concentration (AC50) in [12] and in assay [13] were 2.3 µM (active) and 3.09 µM (active), respectively. Regarding `CCN(CCNC(=O)Cn1cc2c(n1)CCCC2)c1ccccc1`, the AC50 in assay [4] is 2.46 µM (active). With `Cc1cccc(C)c1NC(=O)CN1C(=O)S/C(=C\c2cccn2-c2cccc(C(=O)O)c2)C1=O`, the figures for the EC50 in assay [5] and in assay [6] were 60 µM (active) and > 300 µM (not active), respectively. In [7], the IC50 was 6.71 µM (active).

Take `COc1ccc(NCC(=O)N/N=C/C2CCCCC2)cc1`: in [4], the AC50 is 4.57 µM (active). Take `COC(=O)C1=C(COc2ccccc2)NC(=O)NC1c1ccc2ccccc2c1` (stereo unspecified): the IC50 in [7] is 13.8 µM (active).

For `COc1ccc(CCNC(=O)c2nnn(CC(=O)Nc3c(C)cc(C)cc3C)c2N)cc1OC`, the EC50 in the assay “cells [2]” and in the assay “cells [3]” was > 350 µM (not active) throughout. As for `COc1ccc(N2CCN(c3ccc(N4C(=O)CC(C)C4=O)cc3[N+](=O)[O-])CC2)cc1` (stereo unspecified), the values for the half-maximal effective concentration (EC50) in “cells [2]” and in “cells [3]” were > 350 µM (not active) and 41.1 µM (active), respectively. For `CCc1ccc(C2C(=O)c3ccccc3C2=O)cc1`, in that order: > 350 µM (not active) and 30.8 µM (active). As to `O=C(N/N=C/c1ccccn1)c1cc(-c2ccc(Br)s2)n[nH]1`, the IC50 in assay [7] was 8.5 µM (active).

In the case of `CCc1ccc(OCc2cccc(C(=O)N/N=C\c3cnn(C)c3C)c2)cc1`, the IC50 in [7] was 9.07 µM (active).
